Data: patent US20250171437A1 (Agios Pharmaceuticals,Inc., priority 2022, published 2025)

Target: T1, human PAH with the R408W mutation (A375 R408W cells) (Homo sapiens, UniProt P00439, R408W)
T1 construct: expressed in transfected cells
T1 sequence (P00439 1-452 R408W): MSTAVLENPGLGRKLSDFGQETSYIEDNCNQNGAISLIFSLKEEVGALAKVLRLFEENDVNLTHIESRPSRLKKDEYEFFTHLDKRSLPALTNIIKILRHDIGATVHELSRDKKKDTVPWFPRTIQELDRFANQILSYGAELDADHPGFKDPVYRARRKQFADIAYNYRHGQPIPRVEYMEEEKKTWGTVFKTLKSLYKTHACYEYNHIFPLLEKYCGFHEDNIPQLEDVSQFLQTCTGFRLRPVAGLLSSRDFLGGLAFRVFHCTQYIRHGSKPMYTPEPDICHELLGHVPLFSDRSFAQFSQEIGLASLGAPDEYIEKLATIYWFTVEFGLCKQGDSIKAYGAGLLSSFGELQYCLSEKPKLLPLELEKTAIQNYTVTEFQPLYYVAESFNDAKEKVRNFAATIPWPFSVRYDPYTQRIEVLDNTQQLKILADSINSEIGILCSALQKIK
Assay: Cell Based Phenylalanine Flux Assay
Conditions: A375 R408W cells; 24 hrs with compound, then 20 μM sepiapterin and 800 μM 13C9,15N-Phenylalanine for 4 hours; 13C-Tyrosine by LC-MS; average where tested multiple times
How it was run: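 A375 cells stably expressing human PAH R408W treated 24 h at 37° C with a 10-point 2-fold dose curve in duplicate, 0.5% DMSO. Then 20 μM sepiapterin and 800 μM 13C9,15N-Phe added for 4 h; 13C-Tyr in media measured by LC-MS to give AC50.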

Row | AC50 | Structure (SMILES)
1 | 500 to 1000 nM | Cc1cccc2nc([C@@H]3c4nc[nH]c4CCN3C(=O)c3nnc(-c4ccn(C(F)F)n4)o3)oc12 [Example 860, (S)-(5-(1-(difluoromethyl)-1H-pyrazol-3-yl)-1,3,4-oxadiazol-2-yl)(4-(7-methylbenzo[d]oxazol-2-yl)-6,7-dihydro-1H-imidazo[4,5-c]pyridin-5(4H)-yl)methanone]
2 | 500 to 1000 nM | O=C(c1nnc(-c2ccn(C(F)F)n2)o1)N1CCc2[nH]cnc2[C@@H]1c1nc2cccc(F)c2o1 [Example 861, (R)-(5-(1-(difluoromethyl)-1H-pyrazol-3-yl)-1,3,4-oxadiazol-2-yl)(4-(7-fluorobenzo[d]oxazol-2-yl)-6,7-dihydro-1H-imidazo[4,5-c]pyridin-5(4H)-yl)methanone]
3 | ≤ 500 nM | O=C(c1nnc(-c2ccn(C(F)F)n2)o1)N1CCc2[nH]cnc2[C@H]1c1nc2cccc(F)c2o1 [Example 862, (S)-(5-(1-(difluoromethyl)-1H-pyrazol-3-yl)-1,3,4-oxadiazol-2-yl)(4-(7-fluorobenzo[d]oxazol-2-yl)-6,7-dihydro-1H-imidazo[4,5-c]pyridin-5(4H)-yl)methanone]
4 | ≤ 500 nM | O=C(c1ocnc1CC(F)F)N1CCc2[nH]cnc2[C@H]1c1nc2cccc(F)c2o1 [Example 863, (S)-(4-(2,2-difluoroethyl)oxazol-5-yl)(4-(7-fluorobenzo[d]oxazol-2-yl)-6,7-dihydro-1H-imidazo[4,5-c]pyridin-5(4H)-yl)methanone]
5 | ≤ 500 nM | O=C(c1ocnc1CC(F)F)N1CCc2[nH]cnc2[C@@H]1c1nc2cccc(F)c2o1 [Example 864, (R)-(4-(2,2-difluoroethyl)oxazol-5-yl)(4-(7-fluorobenzo[d]oxazol-2-yl)-6,7-dihydro-1H-imidazo[4,5-c]pyridin-5(4H)-yl)methanone]
6 | ≤ 500 nM | O=C(c1ocnc1CC(F)F)N1CCc2[nH]cnc2[C@H]1c1nc2cc(F)ccc2o1 [Example 865, (S)-(4-(2,2-difluoroethyl)oxazol-5-yl)(4-(5-fluorobenzo[d]oxazol-2-yl)-6,7-dihydro-1H-imidazo[4,5-c]pyridin-5(4H)-yl)methanone]
7 | 500 to 1000 nM | O=C(c1ocnc1CC(F)F)N1CCc2[nH]cnc2[C@@H]1c1nc2cc(F)ccc2o1 [Example 866, (R)-(4-(2,2-difluoroethyl)oxazol-5-yl)(4-(5-fluorobenzo[d]oxazol-2-yl)-6,7-dihydro-1H-imidazo[4,5-c]pyridin-5(4H)-yl)methanone]
8 | 500 to 1000 nM | O=C(c1nnc(-c2ncccc2F)o1)N1CCc2[nH]cnc2[C@@H]1c1nc2cccc(F)c2o1 [Example 867, (R)-(4-(7-fluorobenzo[d]oxazol-2-yl)-6,7-dihydro-1H-imidazo[4,5-c]pyridin-5(4H)-yl)(5-(3-fluoropyridin-2-yl)-1,3,4-oxadiazol-2-yl)methanone]
9 | ≤ 500 nM | O=C(c1nnc(-c2ncccc2F)o1)N1CCc2[nH]cnc2[C@H]1c1nc2cccc(F)c2o1 [Example 868, (S)-(4-(7-fluorobenzo[d]oxazol-2-yl)-6,7-dihydro-1H-imidazo[4,5-c]pyridin-5(4H)-yl)(5-(3-fluoropyridin-2-yl)-1,3,4-oxadiazol-2-yl)methanone]
10 | ≤ 500 nM | Cc1cccc2nc([C@@H]3c4nc[nH]c4CCN3C(=O)c3nnc(-c4ccn(C)n4)o3)oc12 [Example 869, (S)-(5-(1-methyl-1H-pyrazol-3-yl)-1,3,4-oxadiazol-2-yl)(4-(7-methylbenzo[d]oxazol-2-yl)-6,7-dihydro-1H-imidazo[4,5-c]pyridin-5(4H)-yl)methanone]
11 | 1000 to 5000 nM | Cc1cccc2nc([C@H]3c4nc[nH]c4CCN3C(=O)c3nnc(-c4ccn(C)n4)o3)oc12 [Example 870, (R)-(5-(1-methyl-1H-pyrazol-3-yl)-1,3,4-oxadiazol-2-yl)(4-(7-methylbenzo[d]oxazol-2-yl)-6,7-dihydro-1H-imidazo[4,5-c]pyridin-5(4H)-yl)methanone]
12 | 1000 to 5000 nM | Cc1cccc2nc([C@H]3c4nc[nH]c4CCN3C(=O)c3nnc(-c4cnn(C(F)F)c4)o3)oc12 [Example 871, (R)-(5-(1-(difluoromethyl)-1H-pyrazol-4-yl)-1,3,4-oxadiazol-2-yl)(4-(7-methylbenzo[d]oxazol-2-yl)-6,7-dihydro-1H-imidazo[4,5-c]pyridin-5(4H)-yl)methanone]
13 | 500 to 1000 nM | Cc1cccc2nc([C@@H]3c4nc[nH]c4CCN3C(=O)c3nnc(-c4cnn(C(F)F)c4)o3)oc12 [Example 872, (S)-(5-(1-(difluoromethyl)-1H-pyrazol-4-yl)-1,3,4-oxadiazol-2-yl)(4-(7-methylbenzo[d]oxazol-2-yl)-6,7-dihydro-1H-imidazo[4,5-c]pyridin-5(4H)-yl)methanone]
14 | ≤ 500 nM | O=C(c1ocnc1CC(F)F)N1CCc2[nH]cnc2[C@H]1c1nc2ccccc2o1 [Example 873, (S)-(4-(benzo[d]oxazol-2-yl)-6,7-dihydro-1H-imidazo[4,5-c]pyridin-5(4H)-yl)(4-(2,2-difluoroethyl)oxazol-5-yl)methanone]
15 | 500 to 1000 nM | O=C(c1ocnc1CC(F)F)N1CCc2[nH]cnc2[C@@H]1c1nc2ccccc2o1 [Example 874, (R)-(4-(benzo[d]oxazol-2-yl)-6,7-dihydro-1H-imidazo[4,5-c]pyridin-5(4H)-yl)(4-(2,2-difluoroethyl)oxazol-5-yl)methanone]
16 | ≤ 500 nM | O=C(c1nnc(-c2cnn(C(F)F)c2)o1)N1CCc2[nH]cnc2[C@H]1c1nc2cccc(F)c2o1 [Example 875, (S)-(5-(1-(difluoromethyl)-1H-pyrazol-4-yl)-1,3,4-oxadiazol-2-yl)(4-(7-fluorobenzo[d]oxazol-2-yl)-6,7-dihydro-1H-imidazo[4,5-c]pyridin-5(4H)-yl)methanone]
17 | ≤ 500 nM | O=C(c1nnc(-c2cnn(C(F)F)c2)o1)N1CCc2[nH]cnc2[C@@H]1c1nc2cccc(F)c2o1 [Example 876, (R)-(5-(1-(difluoromethyl)-1H-pyrazol-4-yl)-1,3,4-oxadiazol-2-yl)(4-(7-fluorobenzo[d]oxazol-2-yl)-6,7-dihydro-1H-imidazo[4,5-c]pyridin-5(4H)-yl)methanone]
18 | 1000 to 5000 nM | COCc1ccc2c(C(=O)N3CCc4[nH]cnc4[C@H]3c3nc4cc(C)ccc4o3)cnn2c1 [Example 877, (S)-(6-(methoxymethyl)pyrazolo[1,5-a]pyridin-3-yl)(4-(5-methylbenzo[d]oxazol-2-yl)-6,7-dihydro-1H-imidazo[4,5-c]pyridin-5(4H)-yl)methanone]
19 | ≥ 5000 nM | COCc1ccc2c(C(=O)N3CCc4[nH]cnc4[C@@H]3c3nc4cc(C)ccc4o3)cnn2c1 [Example 878, (R)-(6-(methoxymethyl)pyrazolo[1,5-a]pyridin-3-yl)(4-(5-methylbenzo[d]oxazol-2-yl)-6,7-dihydro-1H-imidazo[4,5-c]pyridin-5(4H)-yl)methanone]
20 | 1000 to 5000 nM | O=C(c1cnn(-c2ccccn2)c1)N1CCc2[nH]cnc2[C@H]1c1nc2cc(F)ccc2o1 [Example 879, (S)-(4-(5-fluorobenzo[d]oxazol-2-yl)-6,7-dihydro-1H-imidazo[4,5-c]pyridin-5(4H)-yl)(1-(pyridin-2-yl)-1H-pyrazol-4-yl)methanone]
21 | 1000 to 5000 nM | O=C(c1cnn(-c2ccccn2)c1)N1CCc2[nH]cnc2[C@@H]1c1nc2cc(F)ccc2o1 [Example 880, (R)-(4-(5-fluorobenzo[d]oxazol-2-yl)-6,7-dihydro-1H-imidazo[4,5-c]pyridin-5(4H)-yl)(1-(pyridin-2-yl)-1H-pyrazol-4-yl)methanone]
22 | 1000 to 5000 nM | Cc1nn(C)cc1-c1nnc(C(=O)N2CCc3[nH]cnc3[C@H]2c2nc3cc(F)ccc3o2)o1 [Example 881, (S)-(5-(1,3-dimethyl-1H-pyrazol-4-yl)-1,3,4-oxadiazol-2-yl)(4-(5-fluorobenzo[d]oxazol-2-yl)-6,7-dihydro-1H-imidazo[4,5-c]pyridin-5(4H)-yl)methanone]
23 | 1000 to 5000 nM | Cc1nn(C)cc1-c1nnc(C(=O)N2CCc3[nH]cnc3[C@@H]2c2nc3cc(F)ccc3o2)o1 [Example 882, (R)-(5-(1,3-dimethyl-1H-pyrazol-4-yl)-1,3,4-oxadiazol-2-yl)(4-(5-fluorobenzo[d]oxazol-2-yl)-6,7-dihydro-1H-imidazo[4,5-c]pyridin-5(4H)-yl)methanone]
24 | 500 to 1000 nM | Cc1ccc2nc([C@H]3c4nc[nH]c4CCN3C(=O)c3ocnc3C(F)F)oc2c1 [Example 883, (R)-(4-(difluoromethyl)oxazol-5-yl)(4-(6-methylbenzo[d]oxazol-2-yl)-6,7-dihydro-1H-imidazo[4,5-c]pyridin-5(4H)-yl)methanone]
25 | ≤ 500 nM | Cc1ccc2nc([C@@H]3c4nc[nH]c4CCN3C(=O)c3ocnc3C(F)F)oc2c1 [Example 884, (S)-(4-(difluoromethyl)oxazol-5-yl)(4-(6-methylbenzo[d]oxazol-2-yl)-6,7-dihydro-1H-imidazo[4,5-c]pyridin-5(4H)-yl)methanone]
26 | 1000 to 5000 nM | CCn1cnnc1C(=O)N1CCc2[nH]cnc2[C@H]1c1nc2cc(F)ccc2o1 [Example 885, (S)-(4-ethyl-4H-1,2,4-triazol-3-yl)(4-(5-fluorobenzo[d]oxazol-2-yl)-6,7-dihydro-1H-imidazo[4,5-c]pyridin-5(4H)-yl)methanone]
